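Test compounds were applied to cells in 96-well plates for 48 hours at 5 doses. GI50 = concentration required for 50% inhibition of growth.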 Active and inactive are the calls of the source. No stated cut-off is given here; in the data, active = GI50 up to about 1.1 µM and inactive = higher.
Experiments:
Experiment in all cases: NCI-60 cell line screen, 48 h
[1] = test system: ACHN
[2] = test system: BT-549
[3] = test system: HCC 2998
[4] = test system: HL-60
[5] = test system: IGROV-1
[6] = test system: KM12
[7] = test system: MDA-N
[8] = test system: Malme-3M
[9] = test system: NCI-H23
[10] = test system: NCI-H522
[11] = test system: PC-3
[12] = test system: SF-268
[13] = test system: SK-MEL-5
[14] = test system: SN12C
[15] = test system: T47D
[16] = test system: TK-10
[17] = test system: UACC-257
[18] = test system: UACC-62
[19] = test system: HOP-92
[20] = test system: SK-MEL-2

Compound | GI50 [1] | GI50 [2] | GI50 [3] | GI50 [4] | GI50 [5] | GI50 [6] | GI50 [7] | GI50 [8] | GI50 [9] | GI50 [10] | GI50 [11] | GI50 [12] | GI50 [13] | GI50 [14] | GI50 [15] | GI50 [16] | GI50 [17] | GI50 [18] | GI50 [19] | GI50 [20]
CSc1cnn(CCC#N)c(=O)n1 | > 100 µM (inactive) | > 100 µM (inactive) | > 100 µM (inactive) | 33.2 µM (inactive) | > 100 µM (inactive) | > 100 µM (inactive) | > 100 µM (inactive) | > 100 µM (inactive) | > 100 µM (inactive) | > 100 µM (inactive) | > 100 µM (inactive) | > 100 µM (inactive) | 26.4 µM (inactive) | > 100 µM (inactive) | > 100 µM (inactive) | > 100 µM (inactive) | 62.5 µM (inactive) | > 100 µM (inactive) |  | 
O=S(=O)(c1ccccc1)n1c(C(O)c2ccncc2)cc2ccccc21 (centres undefined) | 37.7 µM (inactive) | 45.4 µM (inactive) |  |  | 39.2 µM (inactive) | 57.1 µM (inactive) | 39.1 µM (inactive) |  | 44.7 µM (inactive) |  | 35.9 µM (inactive) |  | 16.8 µM (inactive) | > 100 µM (inactive) | 36 µM (inactive) | 28.4 µM (inactive) | 10.7 µM (inactive) | 26.5 µM (inactive) | 27 µM (inactive) | 52.6 µM (inactive)
Cc1cc(OC(=O)Nc2cccc3ccccc23)c(C(C)C)cc1C(=S)Nc1ccccc1 | 24.2 µM (inactive) | 12.1 µM (inactive) | 20.6 µM (inactive) | 2.42 µM (inactive) | 13.6 µM (inactive) | 16.3 µM (inactive) | 17.9 µM (inactive) | 17.3 µM (inactive) | 15.7 µM (inactive) | 14.1 µM (inactive) | 15.7 µM (inactive) | 23.9 µM (inactive) | 14.4 µM (inactive) |  | 8.17 µM (inactive) |  | 18.7 µM (inactive) | 12.5 µM (inactive) |  | 13.7 µM (inactive)
COc1ccc2c(c1)[nH]c1c3ccc(OC)cc3oc(=O)c21 | > 100 µM (inactive) | 57.3 µM (inactive) | > 100 µM (inactive) | 0.867 µM (active) | > 100 µM (inactive) | 19.8 µM (inactive) | 0.9 µM (active) | > 100 µM (inactive) | > 100 µM (inactive) |  | > 100 µM (inactive) | > 100 µM (inactive) | > 100 µM (inactive) | > 100 µM (inactive) | > 100 µM (inactive) | > 100 µM (inactive) | > 100 µM (inactive) | > 100 µM (inactive) | > 100 µM (inactive) | > 100 µM (inactive)
CC(Nc1ccc(Cl)cc1)c1ccncc1 (centres undefined) | > 100 µM (inactive) | > 100 µM (inactive) | > 100 µM (inactive) |  | 62.5 µM (inactive) | 22.3 µM (inactive) | > 100 µM (inactive) | > 100 µM (inactive) | 56.8 µM (inactive) | 69.5 µM (inactive) | 64.1 µM (inactive) | 79.6 µM (inactive) | 36.6 µM (inactive) | > 100 µM (inactive) | 42.3 µM (inactive) | > 100 µM (inactive) | 55.7 µM (inactive) |  |  | > 100 µM (inactive)
CCOC(=O)C(=O)/C(=C/NC(=S)c1ccncc1)C(=O)OCC | > 100 µM (inactive) | > 100 µM (inactive) | > 100 µM (inactive) | > 100 µM (inactive) | > 100 µM (inactive) | > 100 µM (inactive) | > 100 µM (inactive) | > 100 µM (inactive) | > 100 µM (inactive) | > 100 µM (inactive) | > 100 µM (inactive) | > 100 µM (inactive) | > 100 µM (inactive) | > 100 µM (inactive) | > 100 µM (inactive) |  | > 100 µM (inactive) | > 100 µM (inactive) |  | > 100 µM (inactive)
CCC(C)N1CN(c2ccccc2)C2(CCN(CCCC(=O)c3ccc(F)cc3)CC2)C1=O (centres undefined) | 1.68 µM (inactive) | 13.1 µM (inactive) |  | 4.76 µM (inactive) | 3.02 µM (inactive) |  | 11.7 µM (inactive) | 14.7 µM (inactive) | 3.57 µM (inactive) | 7.85 µM (inactive) | 10.6 µM (inactive) | 6.7 µM (inactive) | 1.19 µM (inactive) | 3.88 µM (inactive) | 1.68 µM (inactive) | 4.85 µM (inactive) |  | 16.6 µM (inactive) |  | 14.9 µM (inactive)
COc1ccc(/C=C2\C(=O)N(C3OC(COC(C)=O)C(OC(C)=O)C(OC(C)=O)C3OC(C)=O)c3ccccc3N=C2N)cc1 (centres undefined) | 38.5 µM (inactive) | 23.9 µM (inactive) | 21.8 µM (inactive) | 18.2 µM (inactive) | 27.3 µM (inactive) | 16.9 µM (inactive) | 4.48 µM (inactive) | 27.4 µM (inactive) | 20 µM (inactive) |  | 23.7 µM (inactive) | 32.5 µM (inactive) | 11.3 µM (inactive) | 36.9 µM (inactive) | 14 µM (inactive) | 34 µM (inactive) | 24.5 µM (inactive) | 17.5 µM (inactive) | 71.4 µM (inactive) | 23.1 µM (inactive)

Reference: ChEMBL document CHEMBL1201862, “PubChem BioAssay data set” (2004)
